Laboratory results published in US6235707A, “Anticoagulant peptidyl-arginine aldehyde derivatives” (Gyogyszerkutato Intezet Kft., priority 1996, dated 2001).

Assays:
Type in all cases: biochemical
clot-bound thrombin = target: T1, clot-bound thrombin (Homo sapiens, UniProt P00734); experiment: inhibition of plasma clot-bound thrombin (Methods M1, M3); conditions: clot from platelet-rich human plasma; Tos-Gly-Pro-Arg-pNA substrate
T1 construct: from tissue; host or cells: clot of recalcified human platelet-rich plasma
Description: (§1) Plasma-clot was obtained by recalcificating platelet-rich human plasma, and fibrin gel by clotting human fibrinogen with human thrombin. For the activity measures of fXa and thrombin Z-D-Arg-Gly-Arg-pNA or Tos-Gly-Pro-Arg-pNA substrates were used in agreement with Methods M1-M3.
Preparation of Clots from Human Plasma
a) Platelet-rich plasma is prepared by centrifuging a 9:1 mixture of human blood and 3.8% sodium citrate solution for 5 min. at 240×g.
b) 200 μl platelet-rich plasma and 80 μl 40 mM CaCl2 solution are allowed to stand at room temperature for 1 hour. The thus-formed clot is washed with 6×2 ml of 0.9% NaCl solution with gentle stirring to remove the residual enzymes (thrombin and factor Xa). The washing medium is assayed for thrombin-like activity as follows:
c) To 400 μl of washing medium 100 μl of 1 mM Tos-Gly-Pro-Arg-pNA substrate solution is added, the mixture is incubated for 30 min at 37° C., then the reaction is stopped with 100 μl of 50% acetic acid. From this mixture 150 μl aliquots are applied onto a 96-well microtitre plate and the extinction coefficients are measured at 405 nm (ELISA READER SLT Laborinstrument GmbH, Austria). In case of efficient washing the extinction coefficient is smaller than 5% of that of the control.
Determination of the Inhibition of Clot-bound Thrombin
a) Solutions are made from the peptide inhibitors according to Method M2/a.
b) After draining off the washing medium the clots (Method M1) are mixed with 400 μl of peptide solution (3 parallel samples with each concentration), then the samples are incubated for 5 min. at 37° C. together with a separate 400 μl buffer serving as control. Then 100 μl […] 1 mM Tos-Gly-Pro-Arg-pNA substrate solution is added and the incubation continued for further 30 min. at 37° C. The experiment is continued according to M2/c.

thrombin = thrombin (Homo sapiens, UniProt P00734); experiment: thrombin time (TT) plasma clotting test; conditions: Table 3; twofold prolongation compared to control; read-out: A: anticoagulant IC50, TT
Description: (§2) Anticoagulant activity (i.e. inhibition of the proteolytic reactions in the process) is measured by anticoagulant tests, e.g. in the thrombin time (TT), activated partial thromboplastin time (APTT) and prothrombin time (PT) tests [E. J. W. Bovie et al., Mayo Clinic Laboratory Manual of Haemostasis; W. B. Saunders Co., Philadelphia (1971)]. Plasma, inhibited in spontaneous coagulation, e.g. citrate-plasma, is made to coagulate and the required coagulation time is measured. Upon the action of anticoagulants the coagulation time is prolonged proportionally to the inhibition of the reaction(s) in the process. The anticoagulant effect can be characterised by the substance concentration required to prolong the coagulation time twofold compared to the control (IC50). The effect of anticoagulants on individual coagulant proteases is measured by the amidolytic method [R. Lottenberg et al., Methods in Enzymol. 80, 341 (1981); G. Cleason, Blood Coagulation and Fibrinolysis 5, 411 (1994)]. The isolated active factor (e.g. thrombin, fXa) and its chromogen or fluorogen peptide-amide substrate are reacted in the presence or absence of the inhibitor, resp. The enzyme inhibiting action is characterised by the inhibitory constant (IC50) measured during amidolysis.
In the TT test coagulation is initiated by the thrombin added to the citrate plasma. In the system 22 pmol/ml of thrombin is functioning and its inhibition can be measured on the fibrinogen (one of the natural substrates of thrombin) in the presence of plasma components. In the APTT and PT tests the full coagulation process takes place. Depending on the activator fX is activated either by the extrinsic or the intrinsic pathway. The generated fXa activates prothrombin to thrombin which, in turn, triggers plasma coagulation. The coagulation time is prolonged if the enzymes or one of them is inhibited by the inhibitor. In the APTT and PT tests at most 40 pmol/ml Xa can be generated (this is the full amount of factor X present in both systems) while 150 pmol/ml (APTT) and 350 pmol/ml (PT) of thrombin are generated [B. Kaiser et al., Thromb. Res. 65, 157 (1992)].
(§3) The in vitro anticoagulant effects of the compounds of general formula (I) was measured by the prothrombin time (PT), activated partial thromboplastin time (APTT) and thrombin time (TT) tests [D. Bagdy et al., Thromb. Haemost. 67, 325 (1992)]. The fxa-inhibiting effect of the compounds was also determined using the Bz-Ile-Glu-Gly-Arg-pNA chromogen substrate (see method M6).

[1] = target: T2, fibrin gel-bound thrombin (Homo sapiens, UniProt P00734); experiment: inhibition of fibrin gel-bound thrombin (Methods M4, M5); conditions: human fibrinogen clotted with human thrombin; Tos-Gly-Pro-Arg-pNA substrate
T2 construct: purchased SIGMA
Description: as §1
Preparation of Fibrin Clots
a) To each reaction vessel 200 μl of human fibrinogen (SIGMA), 25 μl of 25 NIH/E/ml human thrombin (SIGMA) and 40 μl of 100 mM CaCl2 solution is placed and the mixtures are allowed to stand for 1 hour at 20-22° C. The fibrin clots are washed with isotonic NaCl-solution (3×2 ml) under gentle stirring to remove traces of thrombin and sedimented for 5 min. The effectiveness of the washing can be checked by the method M1/c.
Determination of Inhibition of Fibrin-clot Bound Thrombin
a) 0.1-1.0-10 and 100 μg/ml solutions are made from the peptide inhibitors with Hepes/NaCl buffer (0.001 M Hepes and 0.1 M NaCl, pH=7.4).
b) Measurements are continued according to M3/b.

isolated human fXa = target: T3, isolated human fXa (Homo sapiens, UniProt P00742); experiment: fXa inhibition in solution, amidolytic method on Bz-Ile-Glu-Gly-Arg-pNA chromogen substrate (Method M6); conditions: Table 3; isolated human fXa, Bz-Ile-Glu-Gly-Arg-pNA; read-out: B: fXa inhibiting IC50
T3 construct: The isolated active factor (e.g. thrombin, fXa) and its chromogen or fluorogen peptide-amide substrate are reacted; purchased SIGMA
T3 sequence (P00742 235-488 limits assumed): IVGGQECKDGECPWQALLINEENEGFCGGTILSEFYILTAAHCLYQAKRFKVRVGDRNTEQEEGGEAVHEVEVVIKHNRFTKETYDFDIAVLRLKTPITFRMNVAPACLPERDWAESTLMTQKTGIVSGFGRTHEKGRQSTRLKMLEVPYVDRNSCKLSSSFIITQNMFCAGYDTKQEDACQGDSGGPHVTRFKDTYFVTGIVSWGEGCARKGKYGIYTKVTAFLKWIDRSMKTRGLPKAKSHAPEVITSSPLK
T3 sequence (P00742 41-179 partner limits assumed): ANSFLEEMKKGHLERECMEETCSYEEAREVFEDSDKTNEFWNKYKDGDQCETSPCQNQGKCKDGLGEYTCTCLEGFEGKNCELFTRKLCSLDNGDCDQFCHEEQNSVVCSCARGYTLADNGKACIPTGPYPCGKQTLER
Description: as §2, §3
Determination of Factor Xa Inhibition in Solution on a 96-well Microtitre Plate
a) By means of phosphate buffer (0.1M sodium phosphate and 0.05M sodium chloride, pH=7.4) 1.3 E/ml solution is prepared from human factor Xa (SIGMA), and 0.1-1.0-10 and 100 μg/ml solutions from the peptide inhibitors. The Bz-Ile-Glu-Gly-Arg-pNA substrate is used in distilled water solution ([…]).
b) From the control and the peptide inhibitor solutions (3 parallel samples of each concentration) 30-30 μl aliquots are placed into the wells. 30 μl of factor Xa, 90 μl of buffer and 150 μl of substrate are added to the peptide solution and the extinction is determined after 10 min. at 405 nm. Thereafter the steps are the same as in M2/c.

CCOC(=O)N[C@H](CC1CCC1)C(=O)N1CCC[C@H]1C(=O)N[C@H](C=O)CCCNC(=N)N [Example 1, Ethoxycarbonyl-3-cyclobutyl-D-alanyl-L-prolyl-L-arginine aldehyde]
IC50 (clot-bound thrombin): 390 nM
IC50 (thrombin): 110 nM
IC50 [1]: 320 nM
IC50 (isolated human fXa): 40 nM
